{
  "source": "paper PMC5349910",
  "about": "“Discovery of BPR1K871, a quinazoline based, multi-kinase inhibitor for the treatment of AML and solid tumors: Rational design, synthesis, in vitro and in vivo evaluation” (Oncotarget, 2016)",
  "key": {"MV4-11 cells": {"system": "MV4-11 cells", "assay": "MTS cell viability assay, MV4-11", "format": "cell-based, human", "settings": "MTS, 72 h, AML-FLT3-ITD (homozygous), supplement values ± SEM, read-out: MV4-11 EC50", "description": "The MTS cell viability assay was conducted as previously described. The MOLM-13 human leukemia cell line was obtained from the German Resource Centre for Biological Material (DSMZ, Braunschweig, Germany); the MV4-11 cell line was purchased from the American Type Culture Collection (ATCC, Manassas, VA, USA). […] To determine cell viability after drug treatment, assay for MOLM-13 and MV4-11 was performed by seeding 10000 cells per well in a 96-well culture plate. […] After 16 h, cells were then treated with vehicle or various concentrations of compound in medium for 72 h. Viable cells were quantified using the MTS method (Promega, Madison, WI, USA) according to the manufacturer's recommended protocol. Results were determined by measuring the absorbance at 490 nm using a plate reader (Victor2; PerkinElmer, Shelton, CT, USA)."}, "RS4-11 cells": {"system": "RS4-11 cells", "assay": "Anti-proliferative activity, RS4-11", "format": "cell-based", "settings": "Homo sapiens, RS4-11; ALL-wt-FLT3 (homozygous); supplement values ± SEM; read-out: RS4-11 EC50"}, "U937 cells": {"system": "U937 cells", "assay": "Anti-proliferative activity, U937", "format": "cell-based", "settings": "Homo sapiens, U-937; AML-FLT3-negative; supplement values ± SEM; read-out: U937 EC50"}, "Mia-PaCa2 cells": {"system": "Mia-PaCa2 cells", "assay": "Anti-proliferative activity, Mia-PaCa2", "format": "cell-based, human", "settings": "supplement values ± SEM"}, "Hep 3B cells": {"system": "Hep 3B cells", "assay": "Anti-proliferative activity, Hep 3B", "format": "cell-based", "settings": "Hep3B; Human Hepatoma"}, "[1]": {"system": "FLT3 phosphorylation (pFLT3 at residue Y591)", "assay": "Western blot, FLT3 phosphorylation in MV4-11 cells", "format": "cell-based, human", "settings": "2.0 h", "description": "In order to understand the mode of action of BPR1K871, mechanistic studies in MV4-11 cell line using western blot analysis was carried out. MV4-11 cells were incubated with BPR1K871 in a dose-dependent manner for 2.0 h. Cell lysates were prepared and analyzed by immunoblotting for both FLT3 phosphorylation (pFLT3 at residue Y591) and AURKA phosphorylation (pAURKA at residue T288).\nWestern blot analysis was conducted as previously described. Primary antibodies against phospho-FLT3 (Tyr591) (#3461) and phospho-AURKA (Thr288) (#3079) were purchased from Cell Signaling Technology. The anti-FLT3 antibody (sc-480) and anti-AURKA antibody (07–648) were purchased from Santa Cruz Biotechnology and Upstate, respectively. The anti-β-actin rabbit polyclonal antibody (GTX110564) was purchased from GeneTex (CA, USA). The secondary antibodies horseradish peroxidase (HRP)-linked goat anti-rabbit IgG (111-035-003) were purchased from Jackson Immuno (West Grove, PA, USA). MV4-11 cells were incubated with compound BPR1K871 for 2.0 h at the indicated concentrations. Cell lysates were prepared and analyzed by immunoblotting. For AURKA analysis, the cell lysates were obtained from MV4-11 cells incubated for 16 h with 40 ngmL^-1 nocodazole, followed by drug treatment for 2.0 h at the indicated concentrations."}, "[2]": {"assay": "Acute toxicity in ICR mice", "format": "in vivo", "settings": "ICR mice (n = 3), iv, 50 mg/kg once a day for five days"}, "MOLM-13 tumor xenograft": {"system": "MOLM-13 tumor xenograft", "assay": "MOLM-13 subcutaneous xenograft model", "format": "in vivo", "settings": "nude mice, iv 1, 3 or 10 mg/kg; hydrochloride salt; p < 0.05", "description": "Based on the potent in vitro anti-proliferative activity of BPR1K871, it was planned to investigate the in vivo efficacy. […] Subsequently, based on the PK study, we evaluated the acute toxicity of BPR1K871 in ICR mice (n = 3) by iv administration. […] Next, the antitumor activity of BPR1K871 was evaluated through IV route in MOLM-13 and MV4-11 xenograft models (Figure 5). For this, nude mice were inoculated subcutaneously with MOLM-13 and MV4-11 cells in the left flank. […] For MOLM-13 model, BPR1K871 was injected intravenously at 10 mg/kg daily for 5 days (on days 1–5); also BPR1K871 was intravenously administrated at 3 and 1 mg/kg once a day for two continuous weeks (on days 1–5 and 8–12). For MV4-11 model, BPR1K871 was intravenously administrated at 10, 3 and 1 mg/kg once a day for two continuous weeks (on days 1–5 and 8–12)."}, "hERG": {"target": "T1, hERG (Homo sapiens, UniProt Q12809)", "T1 construct": "Ricerca Biosciences, LLC", "assay": "hERG inhibition assay", "settings": "at 10 μM; performed by Ricerca Biosciences", "description": "Considering the in vivo efficacy in different cancer models, particularly in pancreatic cancer, it is worthwhile to further investigate BPR1K871; pancreatic and liver cancer are the most fatal of cancers and 5-year relative survival for patients with pancreatic cancer is reported to be just 8% [43, 44].\n[45] hERG inhibition was performed by Ricerca Biosciences, LLC"}, "CYP 2E1": {"target": "CYP 2E1 (Homo sapiens, UniProt P05181)", "sequence (P05181 whole entry)": "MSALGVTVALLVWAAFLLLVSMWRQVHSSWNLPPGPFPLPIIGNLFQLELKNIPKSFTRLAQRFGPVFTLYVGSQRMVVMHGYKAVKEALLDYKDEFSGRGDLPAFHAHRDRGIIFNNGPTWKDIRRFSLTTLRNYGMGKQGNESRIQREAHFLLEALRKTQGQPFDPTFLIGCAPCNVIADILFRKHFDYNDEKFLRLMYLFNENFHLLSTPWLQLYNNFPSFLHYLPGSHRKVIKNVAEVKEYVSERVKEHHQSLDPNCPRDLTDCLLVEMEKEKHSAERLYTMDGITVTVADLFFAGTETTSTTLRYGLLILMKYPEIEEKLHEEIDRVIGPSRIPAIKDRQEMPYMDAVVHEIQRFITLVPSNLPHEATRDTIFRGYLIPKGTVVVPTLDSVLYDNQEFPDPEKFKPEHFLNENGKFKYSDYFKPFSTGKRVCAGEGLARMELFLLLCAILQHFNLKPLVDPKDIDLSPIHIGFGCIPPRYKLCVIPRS", "assay": "CYP inhibition assay, CYP 2E1", "format": "in vitro ADME"}, "FLT3^N841I": {"target": "FLT3^N841I (Homo sapiens, UniProt P36888, N841I)", "assay": "KINOMEScan, FLT3 N841I", "settings": "read-out: FLT3^N841I % control"}, "FLT3^R834Q": {"target": "FLT3^R834Q (Homo sapiens, UniProt P36888, R834Q)", "assay": "KINOMEScan, FLT3 R834Q", "settings": "read-out: FLT3^R834Q % control"}, "KIT^V559D,T670I": {"target": "KIT^V559D,T670I (Homo sapiens, UniProt P10721, T670I/V559D)", "sequence (P10721 26-976 V559D/T670I)": "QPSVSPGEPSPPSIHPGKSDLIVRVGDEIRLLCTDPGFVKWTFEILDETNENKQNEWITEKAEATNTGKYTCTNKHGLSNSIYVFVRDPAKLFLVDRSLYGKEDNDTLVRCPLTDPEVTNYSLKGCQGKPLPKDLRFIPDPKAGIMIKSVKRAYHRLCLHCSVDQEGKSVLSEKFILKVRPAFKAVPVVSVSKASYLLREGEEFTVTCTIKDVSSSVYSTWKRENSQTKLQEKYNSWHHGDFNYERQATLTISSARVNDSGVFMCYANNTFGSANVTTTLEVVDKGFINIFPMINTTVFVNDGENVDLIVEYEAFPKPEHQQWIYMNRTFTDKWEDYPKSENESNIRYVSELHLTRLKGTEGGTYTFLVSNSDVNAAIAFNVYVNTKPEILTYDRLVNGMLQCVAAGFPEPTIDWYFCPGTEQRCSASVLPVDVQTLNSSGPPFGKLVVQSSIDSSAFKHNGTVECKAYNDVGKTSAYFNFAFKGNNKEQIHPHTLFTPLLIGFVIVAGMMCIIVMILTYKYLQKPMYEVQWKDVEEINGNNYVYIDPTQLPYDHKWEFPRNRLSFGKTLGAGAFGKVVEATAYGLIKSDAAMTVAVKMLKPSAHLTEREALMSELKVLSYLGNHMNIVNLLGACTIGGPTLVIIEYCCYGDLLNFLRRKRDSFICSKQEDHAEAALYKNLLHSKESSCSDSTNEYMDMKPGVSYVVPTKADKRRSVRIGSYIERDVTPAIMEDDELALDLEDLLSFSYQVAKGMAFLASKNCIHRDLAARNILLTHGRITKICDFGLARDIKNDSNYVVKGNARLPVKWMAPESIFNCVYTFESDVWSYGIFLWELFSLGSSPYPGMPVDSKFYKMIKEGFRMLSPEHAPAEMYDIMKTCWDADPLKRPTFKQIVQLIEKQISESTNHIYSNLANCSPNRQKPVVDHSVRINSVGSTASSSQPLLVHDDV", "assay": "KINOMEScan, KIT V559D,T670I", "settings": "read-out: KIT^V559D,T670I % control"}},
  "note": "“Also recorded” adds a separate entry of the source. Like-named read-outs stand apart in the source and are kept apart here.",
  "data": [
    {"molecule": "CN(C)CCCOc1ccc2c(NCCc3cnc(NC(=O)Nc4cccc(Cl)c4)s3)ncnc2c1", "note": "[BPR1K871, 1-(3-Chlorophenyl)-3-(5-(2-((7-(3-(dimethylamino)propoxy)quinazolin-4-yl)amino)ethyl)thiazol-2-yl)urea]", "values": [
      {"measurement": "EC50", "setting": "MV4-11 cells; Homo sapiens, MV4-11, 72 h", "result": "~5", "unit": "nM"},
      {"measurement": "EC50", "setting": "MV4-11 cells; listed as 10 (BPR1K871)", "result": 4, "unit": "nM"},
      {"measurement": "EC50", "setting": "RS4-11 cells", "result": 11, "unit": "nM"},
      {"measurement": "EC50", "setting": "U937 cells", "result": 8050, "unit": "nM"},
      {"measurement": "EC50", "setting": "Mia-PaCa2 cells; Homo sapiens, MIA PaCa-2, Human Pancreatic Cancer", "result": "< 100", "unit": "nM"},
      {"measurement": "EC50", "setting": "Mia-PaCa2 cells; Human Pancreatic Cancer", "result": 94, "unit": "nM"},
      {"measurement": "EC50", "setting": "Hep 3B cells", "result": 2470, "unit": "nM"},
      {"measurement": "concentration that completely inhibited formation of pFLT3 (Tyr591)", "setting": "[1]", "result": 2, "unit": "nM"},
      {"measurement": "acute toxicity (tolerability)", "setting": "[2]", "result": "well tolerated"},
      {"measurement": "growth / volume of MOLM-13 tumor xenograft vs vehicle", "setting": "MOLM-13 tumor xenograft", "result": "significantly reduced; also recorded: inhibited"},
      {"measurement": "hERG inhibition", "setting": "hERG", "result": 66, "unit": "%"},
      {"measurement": "IC50", "setting": "CYP 2E1", "result": "> 4000", "unit": "nM"},
      {"measurement": "remaining binding at 1 µM", "setting": "FLT3^N841I", "result": "< 5.2", "unit": "%"},
      {"measurement": "remaining binding at 1 µM", "setting": "FLT3^R834Q", "result": "< 5.2", "unit": "%"},
      {"measurement": "remaining binding at 1 µM", "setting": "KIT^V559D,T670I", "result": "< 4", "unit": "%"}
    ]}
  ]
}
